Assay results from PubChem BioAssay AID179 (DTP/NCI, 2004).
“And” between values parts separate entries of the source, which are not always exact repeats. Identical values can stand only once. The source made the active and inactive calls.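 How the source made its calls: active means compounds giving half or more protection of infected cells from virus-caused growth loss, again on retest; inactive means the rest.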 Where a SMILES comes first, the peptide text is derived from it. The star is where a group is joined. Boc = CC(C)(C)OC(=O)*; Bn = c1ccc(C*)cc1

Test system: CEM cells HIV-1 protection, formazan growth assay
Test: NCI AIDS Antiviral Assay
Conditions: for IC50: measured here: growth of uninfected CEM cells
In short: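 Screen of anti-HIV-1 activity in human CEM cells using a formazan-based growth measurement at five drug concentrations. Hits with 50% or greater protection were repeated, and confirmation required reproducible complete protection.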

SMILES	EC50	IC50	outcome
CCCOP(=O)(OCCC)OC(C(F)(F)F)C(F)(F)F	> 200 µM	> 200 µM	–
O=S(Nc1ccccc1)c1ccc(Cl)cc1 (stereo not given)	> 200 µM	81.3 µM	–
COc1cccc(CN2CC(C)N(N=Cc3c4c(O)c5c(O)c(C)c6c(c5c3O)C(=O)C(C)(O/C=C/C(OC)C(C)C(OC(C)=O)C(C)C(O)C(C)C(O)C(C)/C=C/C=C(\C)C(=O)N4)O6)C(C)C2)c1 (stereo not given)	> 200 µM	7.24 µM	–
CC(C)(C)c1cc(Oc2ccc(C#N)c(C#N)c2)cc(C(C)(C)C)c1	> 40.7 µM	> 40.7 µM	–
O=C1N/C(=N\N=C\c2ccccc2)C(c2ccccc2)O1 (stereo not given)	> 200 µM	33.9 µM	–
Nc1ccc(-c2nc3sc(-c4ccc(N)cc4)nc3s2)cc1	> 16.2 µM	> 16.2 µM	–
COc1ccc(-n2nc(C)cc(Cl)c2=O)cc1	> 145 µM	> 145 µM	–
O=C(c1nc2ccc(Cl)cc2[nH]c1=O)C(O)c1ccccc1 (stereo not given)	> 575 µM	11.5 µM	–
CCN(CC)/[N+]([O-])=N/OCOC(C)=O	> 200 µM	102 µM	–
CC1(C)CC(=O)c2c(oc3cc(O)c(O)cc23)C1	–	–	inactive
N#Cc1c(=O)c2cc([N+](=O)[O-])ccc2n2c1[nH]c1ccccc12	> 200 µM	3.55 µM	–
Cc1c(C(=O)CC(=O)C(=O)NC2C3CC4CC(C3)CC2C4)[n+](=O)c2ccccc2n1[O-] (stereo not given)	> 12.3 µM	> 12.3 µM	–
N#Cc1[nH]c(=O)n(-c2cccc3ccccc23)c1N	> 200 µM	> 200 µM	–
CC(=O)OC1CCC2(C)C(C1)CC(OC(C)=O)C1C2CC(OC(C)=O)C2(C)C(C(C)CC=C(c3ccccc3)c3ccccc3)CCC12 (stereo not given)	> 7.94 µM	5.01 µM	–
CC1=N/C(=C\c2cccc(Br)c2)C(=O)O1	> 97.7 µM	66.1 µM	–
C[N+]1(C)C[C@@H](O)C[C@@H]1C(=O)[O-]	> 1580 µM	> 1580 µM	–
O=c1ccccc2c(/C=C/c3ccccc3)nn(-c3ccccc3)c12	–	–	inactive
CN1c2c(nc(N)[nH]c2=O)NCC1CCNc1ccc(C(=O)NC(CCC(=O)O)C(=O)O)cc1 (stereo not given)	> 240 µM	204 µM	–
Cc1c(C2CCSc3ccccc3N2)sc2ccccc12 (stereo not given)	> 200 µM	148 µM	–
CCOC(=O)/C(C#N)=C/c1cccc([N+](=O)[O-])c1	> 21.4 µM	> 21.4 µM	–
O=C1CCC2(c3ccc(F)cc3)Nc3ccc(Cl)cc3N12 (stereo not given)	> 61.7 µM	45.7 µM	–

SMILES	EC50	IC50	outcome
O=C(CNc1ccc([N+](=O)[O-])cc1)Nn1c(-c2ccccc2)nc2ccccc2c1=O	> 200 µM	4.17 µM	–
Cc1cc(N(CCC#N)CCC#N)ccc1/C=C(\NC(=O)/C=C/c1ccccc1)C(=O)Nc1ccc(Cl)cc1	> 13.5 µM	> 13.5 µM	–
COc1ccc2oc3c(OC)c(OC)c(OC)cc3c(=O)c2c1	> 8.71 µM	–	–
C=C(C)[C@@H](C(=O)OC)N1C(=O)c2ccccc2C1=O	> 200 µM	> 200 µM	–
COC(=O)C1=C(C(=O)OC)C2C3CC4C(C13)C42	> 200 µM	> 200 µM	–
COC(=O)C1Cc2cc3c(cc2C1)CCC3	> 200 µM	> 200 µM	–
NS(=O)(=O)c1nnc(NC(=O)/C=C/C(=O)O)s1	> 200 µM	> 200 µM	–
Cc1cccc(NC(=O)C(=O)C(C2OC(=O)c3ccccc32)[N+](=O)[O-])c1C (stereo not given)	–	–	inactive
OCC(O)COc1c(Cl)cc(Cl)cc1Cl (stereo not given)	> 251 µM	> 251 µM	–
N#Cc1c(-c2ccc([N+](=O)[O-])cc2)c(C#N)c(=O)n(NS(=O)(=O)c2ccccc2)c1S	> 200 µM	16.6 µM	–
CC1C2(C)OC(=N)C(C#N)(C(c3ccco3)O2)C1(C#N)C#N (stereo not given)	> 200 µM	14.5 µM	–
O=c1c(Cl)c(Cl)cnn1-c1ccc([N+](=O)[O-])cc1[N+](=O)[O-]	> 20.4 µM	> 20.4 µM	–
COC1CC(C)([N+](=O)[O-])C(O)C(C)O1 (stereo not given)	> 200 µM	> 200 µM	–
NCCCCC(=O)NC(CCCCNC(=O)OCc1ccccc1)C(=O)NCCCCC(=O)NC(CCCCNC(=O)OCc1ccccc1)C(=O)NCCCCC(=O)NC(CCCCNC(=O)OCc1ccccc1)C(=O)NCCCCC(=O)NC(CCCCNC(=O)OCc1ccccc1)C(=O)NCCCCC(=O)NC(CCCCNC(=O)OCc1ccccc1)C(=O)O (stereo not given)	> 14.1 µM	13.8 µM	–
O=C(CC(O)(C(F)(F)F)C(F)(F)F)c1ccc(Cl)cc1	> 200 µM	> 200 µM	–
CC(C)c1ccc2c(c1)C=C1OC(=O)[C@]3(C)CCC[C@@]2(C)C13 (stereo not given in full)	> 200 µM	115 µM	–
CC(=O)c1c2c(cc3c1CC1(Cc4cc5c(cc4C1)C(=O)CCC5)C3)CCCC2 (stereo not given)	> 200 µM	3.63 µM	–
CC1=N/C(=C\c2ccccc2F)C(=O)O1	> 631 µM	> 631 µM	–
COc1ccc(-c2cc(=O)c3ccc(O)cc3o2)cc1OC	> 100 µM	24 µM	–
CCC12CCCN(C1)C(=O)Cc1c([nH]c3ccccc13)C(=O)C2 (stereo not given)	> 8.13 µM	> 8.13 µM	–
CCNC(=O)Sc1ccccc1C(=O)NCCC(N)=O	1.1 µM	102 µM	–

SMILES	EC50	IC50	outcome
N#C/C(=C\NC(=S)Nc1ccc(S(=O)(=O)Nc2ccccn2)cc1)C(N)=O	> 200 µM	> 200 µM	–
C=CCC12CC(OC)C(O)CC1(O)OC(c1cc(OC)c(OC)c(OC)c1)C2C (stereo not given)	> 200 µM	> 200 µM	–
Cc1ccc2c(c1-c1c(C)ccc3c1C(=O)c1ccccc1C3=O)C(=O)c1ccccc1C2=O	> 200 µM	7.76 µM	–
C[n+]1c(-c2ccc(/C=C/C=N\NC(=O)c3ccc(C(=O)N/N=C\C=C\c4ccc(-c5cn6ccccc6[n+]5C)cc4)cc3)cc2)cn2ccccc21	> 9.77 µM	> 9.77 µM	–
Cc1cc(C)n(C(C)(C(=O)Cc2ccccc2)n2nc(C)cc2C)n1	> 200 µM	> 200 µM	–
O=C1CCCC/C1=C/c1ccc(Cl)cc1	–	–	inactive
CC(=O)N1C(c2[nH]c3ccccc3c2-c2ccccc2)CCN1c1ccccc1 (stereo not given)	> 200 µM	74.1 µM	–
Cc1nc2ccccc2n1COC(Cn1ccnc1)c1ccc(Cl)cc1Cl (stereo not given)	> 200 µM	135 µM	–
O=C1c2ccccc2C(=O)N1CCN(CCN1C(=O)c2ccccc2C1=O)Cc1ccccc1	–	–	inactive
C/C(CC(=O)CCCC(=O)Nc1ccc(Cl)cc1Cl)=N/NC(=O)CC#N	> 18.2 µM	> 18.2 µM	–
CCN(Cc1cccc(S(=O)(=O)[O-])c1)c1ccc(C(=C2C=CC(=[N+](CC)Cc3cccc(S(=O)(=O)O)c3)C=C2)c2ccccc2)cc1	148 µM	186 µM	–
O=C(O)C(=Cc1ccc(Br)cc1)C(=O)O	> 912 µM	> 912 µM	–
N/C(=N\N=C\c1ccc2c(c1)OCO2)NO	> 200 µM	105 µM	–
O=c1cc(N2CCCC2)[nH]c(=O)n1Cc1ccccc1	–	–	inactive
CCOC(=O)Oc1c(Cl)cc(C(=CCC[C@H]2CC[C@@]3(C)[C@@H](CC[C@@H]4[C@@H]3CC[C@]3(C)[C@@H](C(C)CCCC(C)C)CC[C@@H]43)C2)c2cc(Cl)c(OC(=O)OCC)c(C(=O)OCC)c2)cc1C(=O)OCC (stereo not given in full)	–	–	inactive
CCC(C#N)(c1ccccc1)N(CCc1ccccc1)C(=O)c1ccccc1 (stereo not given)	> 200 µM	191 µM	–
Cc1cc(C)c(C2[C@H]3C(=O)N(c4ccc(Cc5ccc(N6C(=O)[C@@H]7ON(c8ccccc8)C(c8c(C)cc(C)cc8C)[C@@H]7C6=O)cc5)cc4)C(=O)[C@H]3ON2c2ccccc2)c(C)c1 (stereo not given in full)	> 22.4 µM	> 22.4 µM	–
O=C(NCP(=O)(c1ccccc1)c1ccccc1)OCc1ccccc1	> 200 µM	> 200 µM	–
CCCCCCCCCCCCCCCC[N+](C)(C)Cc1ccc(C[N+](C)(C)CCCCCCCCCCCCCCCC)cc1	–	–	inactive
CCN(CC)c1ccc2cc(C(=O)Nc3nc(C45CC6CC(CC(C6)C4)C5)cs3)c(=O)oc2c1	> 200 µM	> 200 µM	–
O=c1[nH]nc(NCc2ccccc2)c2nnn(Cc3ccccc3)c12	> 200 µM	> 200 µM	–

SMILES	EC50	IC50	outcome
Fc1cccc(F)c1C1SCc2nc3ncccc3n21 (stereo not given)	39.8 µM	61.7 µM	–
CCOC(=O)CCC(NC(=O)OCc1ccccc1)C(=O)NC(CCC(=O)OCC)C(=O)NC(CCC(=O)OCC)C(=O)NNC(=O)OC(C)(C)C (stereo not given)	> 200 µM	> 200 µM	–
CC1CC(C)c2c(O)c3c(c(O)c2N1)C(=O)c1ccccc1C3=O (stereo not given)	> 16.2 µM	8.71 µM	–
CCCCCCCCCCOC1C(C(O)CNCCCN(C)C)OC2OC3(CCCCC3)OC21 (stereo not given)	> 200 µM	1.02 µM	–
O=S(=O)(F)c1cccc(C[P+](c2ccccc2)(c2ccccc2)c2ccccc2)c1	> 200 µM	51.3 µM	–
CC(C)CCC1(CCSC#N)C(=O)NC(=O)NC1=O	> 200 µM	37.2 µM	–
O=C1CC(c2c[nH]c3ccccc23)C(=O)N1 (stereo not given)	–	–	inactive
COc1ccc2c(c1)[n+]([O-])c(/C(C)=N/NC(=O)CC#N)c[n+]2[O-]	> 16.6 µM	> 16.6 µM	–
Clc1ccc(C2=NOC(C3CCCCC3)C2)cc1 (stereo not given)	> 38 µM	> 38 µM	–
O=S(=O)(O)OCCOc1ccc(S(=O)(=O)c2ccc(OCCOS(=O)(=O)O)cc2)cc1	> 200 µM	> 200 µM	–
O=c1c(I)c[nH]cc1I	> 200 µM	> 200 µM	–
Cc1cc(C)c(O)c(CN(Cc2ccccn2)Cc2ccccn2)c1	–	–	inactive
N/N=C1/C(=N/O)CCc2nonc21	> 200 µM	> 200 µM	–
CO[C@H]1O[C@@H]2OC3(C)CCC4[C@H](C)CCC([C@H]1C)[C@]42OO3 (stereo not given in full)	> 200 µM	112 µM	–
CNC(=O)C(CC(C)C)NC(=O)C(C)NC(=O)C(Cc1ccc(OCc2ccccc2)cc1)NC(=O)C(COCc1ccccc1)NC(=O)OC(C)(C)C (stereo not given) (Boc-S(Bn)Y(Bn)AL-NHMe; configuration not given here)	> 200 µM	9.55 µM and 13.5 µM	–
CCOC(=O)[C@H]1CSC[C@@H](C(=O)OC)N1	> 562 µM	> 562 µM	–
CC(=O)OC1(c2ccccc2)OC(=O)C(C)(C)c2ccccc21 (stereo not given)	> 158 µM	> 158 µM	–
CC=C=CCN(C)Cc1ccccc1	> 324 µM	> 324 µM	–
COc1cc2c(cc1C1=NC(C)(C)CO1)OCO2	> 1000 µM	> 1000 µM	–
O=C(Nc1ccccc1)c1ccccc1[Se][Se]c1ccccc1C(=O)Nc1ccccc1	5.37 µM	9.55 µM	–
